For series [1], the system named is castration resistant metastatic prostate cancer. Kind of series: Randomized clinical study of cabazitaxel vs mitoxantrone, each with prednisone or prednisolone: efficacy. Type of series: in vivo, human. The method, then: A clinical study was performed wherein patients received either treatment with cabazitaxel or the reference treatment based on mitoxantrone each combined with prednisone or prednisolone.
More specifically, patients over 18 years of age with metastatic castration resistant metastatic prostate cancer either measurable by RECIST criteria or non-measurable disease with rising PSA levels or appearance of new lesions, ECOG (Eastern Cooperative Oncology Group) performance stage 0-2, and adequate organ function (patients had to have neutrophils >1,500 cells/mm^3, platelets >100,000 cells/mm^3, hemoglobin >10 g/dL, creatinine <1.5×upper limit of normal (ULN), total bilirubin <1×ULN, AST <1.5×ULN, and ALT <1.5×ULN) who had had prior hormone therapy, chemotherapy, and radiotherapy, but had progressive during or after docetaxel treatment (cumulative dose ≥225 mg/m^2) were randomized to 10 mg/day of prednisone with either mitoxantrone 12 mg/m^2 or cabazitaxel 25 mg/m^2, both administered every 3 weeks.
Patients with a history of congestive heart failure, or myocardial infarction within the last 6 months, or patients with uncontrolled cardiac arrhythmias, angina pectoris, and/or hypertension were not included in the study.
720 patients were planned to be included in the clinical study: 360 in each cabazitaxel+prednisone and mitoxantrone+prednisone group. Seven hundred and fifty-five patients (755) (median age 68; 84% white) were actually enrolled, 378 in the cabazitaxel and prednisone/prednisolone group and 377 in the mitoxantrone and prednisone/prednisolone group. The maximal number of treatment cycles was 10 for cabazitaxel and 10 for mitoxantrone. The median number of treatment cycles was 6 for cabazitaxel and 4 for mitoxantrone. The median prior dose of docetaxel treatment was 576 mg/m^2 for the cabazitaxel group and 529 mg/m^2 for the mitoxantrone group. Median follow-up was 12.8 months.
The measurements of the results are performed via the same tests as at inclusion. MRI and spiral computed tomographic (CT) scans are preferably used.
The results are evaluated according to the following criteria (cf RECIST guideline): • overall survival (OS): the time from inclusion to the study to the date of death complete response (CR): disappearance of the lesions • partial response (PR): at least 30% reduction of the largest diameter of the lesion progression (PD): at least 20% increase in the sum of the largest diameter of the lesion or appearance of one or more new lesions • stable disease (SD): reduction of the tumour insufficient to be included in PR and increase of the tumour insufficient to be included in PD.
The confirmations of the measurements are made at least 4 weeks after the response criterion has been established for the first time.
The progression-free survival (PFS) is the time from inclusion in the study and the date of progression or death when the progression is either an increase of the PSA, or of the tumour, or of the pain.

The next series relates to CYP3A. The experiment in a line: Metabolism of cabazitaxel. The text has this: Concomitant administration of strong CYP3A inhibitors (for example, ketoconazole, itraconazole, clarithromycin, atazanavir, indinavir, nefazodone, nelfinavir, ritonavir, saquinavir, telithromycin, voriconazole) may increase cabazitaxel concentrations. Therefore co-administration of cabazitaxel with strong CYP3A inhibitors should be avoided. Caution should be exercised with concomitant use of moderate CYP3A inhibitors. One aspect of the invention is a method of treating a patient for prostate cancer comprising determining whether the patient is undergoing treatment with a CYP3A inhibitor, discontinuing treatment with a CYP3A inhibitor, and then administering cabazitaxel to the patient.

Series [2] can be described thus: Population pharmacokinetic analysis in patients. Type of series: in vivo, human. The note with it: for Cmax: CV 107%; for half-life: 1-hour intravenous infusion, 3-compartment PK model. On the procedure:
A population pharmacokinetic analysis was conducted in 170 patients with solid tumors at doses ranging from 10 to 30 mg/m^2 weekly or every 3 weeks.

For the next series, the system named is breast cancer. The note with it: phase II, cited from earlier work.

Read-outs that look alike come from different tables or passages of the source.

Turning to `CO[C@H]1C(=O)[C@]2(C)[C@@H](OC)C[C@H]3OC[C@@]3(OC(C)=O)[C@H]2[C@H](OC(=O)c2ccccc2)[C@]2(O)C[C@H](OC(=O)[C@H](O)[C@@H](NC(=O)OC(C)(C)C)c3ccccc3)C(C)=C1C2(C)C` [cabazitaxel, 4α-acetoxy-2α-benzoyloxy-5β,20-epoxy-1β-hydroxy-7β,10β-dimethoxy-9-oxo-11-taxen-13α-yl (2R,3S)-3-tert-butoxycarbonyl-amino-2-hydroxy-3-phenylpropionate], in series [1] (CbzP vs MP, intention-to-treat), the “Overall survival Hazard ratio (95% CI)” value is 0.70. Further, in series [1] (CbzP vs MP, intention-to-treat), the “PFS Hazard ratio (95% CI)” value is given as 0.74. For the same molecule, the “reduction in risk of death” value in series [1] (cabazitaxel vs mitoxantrone, corresponding to hazard ratio 0.70) was determined as 30%. For the same molecule, the “Discontinuation of study treatment for disease progression, (%)” value in series [1] (intention-to-treat) is given as “(47.6) %”. In series [1] (intention-to-treat, N = 377 mitoxantrone, N = 378 cabazitaxel), the “Discontinuation of study treatment for disease progression, no.” value turned out to be 180. In addition, in series [1] (intention-to-treat, 25 mg/m^2 cabazitaxel or 12 mg/m^2 mitoxantrone every 3 weeks with prednisone), the “Overall survival Median” value came to 15.1 months. For the same molecule, the “PFS Median” value in series [1] (intention-to-treat, earliest progression in tumor, PSA or pain) worked out at 2.8 months. The metabolic pathway entry with CYP3A was “primarily metabolized through CYP3A”. The dose proportionality result in series [2] (10 to 30 mg/m^2, patients with advanced solid tumors) is on record as “No major deviation from the dose proportionality”. Moreover, the “volume of distribution (Vss)” value in series [2] (at steady state, for a patient with a median BSA of 1.84 m^2) was 2,643 L/m^2. In addition, in series [2] (for a patient with a median BSA of 1.84 m^2), the plasma clearance was 26.4 L/h/m^2. For the same molecule, the Tmax in series [2] (human, plasma, intravenous, 25 mg/m^2, Cmax reached at the end of the 1-hour infusion) was determined as 1 h. For the same molecule, the Cmax is roughly 226 ng/mL in series [2] (human, plasma, intravenous, 25 mg/m^2, amount administered to provide this Cmax, read-out: Cmax) and 226 ng/mL in series [2] (male, human, plasma, 25 mg/m2, intravenous 25 mg/m^2 every 3 weeks, patients with metastatic prostate cancer, read-out: mean Cmax). Besides, the Vd in series [2] (human, plasma, intravenous, at steady state, read-out: volume of distribution (Vss)) was 4860 L. Besides, the half-life was 0.0667 h in series [2] (human, plasma, iv, read-out: α-half-life); 2 h in series [2] (human, plasma, iv, read-out: β-half-life (converted)); 95 h in series [2] (human, plasma, iv, read-out: γ-half-life (converted)). In series [2] (male, human, plasma, intravenous, patients with metastatic prostate cancer, CV 39%), this molecule gave a clearance of 808 mL/min. In addition, the area under the curve (AUC) in series [2] (male, human, plasma, iv, 25 mg/m2, intravenous 25 mg/m^2 every 3 weeks, patients with metastatic prostate cancer, CV 34%) was determined as 991 ng·h/mL. In series [2] (prednisone or prednisolone 10 mg daily), the “effect of prednisone or prednisolone on the pharmacokinetics of cabazitaxel” value is “does not affect”. Also, the response level in the series with breast cancer (prior taxanes and anthracyclines as adjuvant) is listed as 14.6%; in the series with breast cancer (second-line treatment) it was 9.5%.

The term Tmax denotes the time at which the peak concentration occurs. For orientation: Cmax means the peak of the concentration-time curve. What is called half-life is the time in which the quantity being followed falls by half. For orientation: clearance means the rate of elimination divided by the concentration. Low values mean inefficient removal, high ones efficient removal. What is called AUC is the area under the concentration-time curve, a measure of exposure. Low values mean low exposure, high ones high exposure.

These data come from patent US12453712B2, “Antitumoral use of cabazitaxel” (Sanofi Mature IP, priority 2009, dated 2025).
